# Assay results from patent publication US20090012103A1, “SUBSTITUTED HETEROCYCLIC COMPOUNDS” (priority 2007, published 2009).
# Biological target: wild-type human cardiac sodium channel, hNav1.5 (Homo sapiens, UniProt Q14524)
# Assay: Late INa screening assay (late sodium current, PatchXpress whole cell patch clamp)
# Format: cell-based
# Details: compound at 10 μM; for inhibition at 10 µM: read-out: Late INa % blk
# Method: The late sodium current (Late INa) and peak sodium current (Peak INa) assays are performed on an automated electrophysiology platform, PatchXpress 7000A (MDS Analytical Technologies, Sunnyvale, Calif.), which uses the whole cell patch clamp technique to measure currents through the cell membrane of up to 16 cells at a time. The assay uses an HEK293 (human embryonic kidney) cell line heterologously expressing the wild-type human cardiac sodium channel, hNav1.5, purchased from Millipore (Billerica, Mass.). No beta subunits were coexpressed with the Na channel alpha subunit. […] Experiments are carried out at 24-27° C.
# For both the Late INa and Peak INa assays, series resistance compensation is set to 50% and whole-cell compensation is performed automatically. […] Currents through open sodium channels are automatically recorded and stored in the DataXpress2 database (MDS Analytical Technologies, Sunnyvale, Calif.). Analysis is performed using DataXpress2 analysis software and data are compiled in Excel.
# Compound stocks are routinely made in glass vials to 10 mM in dimethyl sulfoxide (DMSO). In some cases, when compounds are not soluble in DMSO, they are made in 100% ethanol. Stocks are sonicated as necessary. The extracellular solution for screening Late INa is composed of: 140 mM NaCl, 4 mM KCl, 1.8 mM CaCl2, 0.75 mM MgCl2, and 5 mM HEPES with pH adjusted to 7.4 using NaOH. The extracellular solution for screening Peak INa is composed of: 20 mM NaCl, 120 mM N-methyl-D glucamine, 4 mM KCl, 1.8 mM CaCl2, 0.75 mM MgCl2, and 5 mM HEPES with pH adjusted to 7.4 using HCl. The intracellular solution used to perfuse the inside of the cells for both the Late INa and Peak INa assays contains: 120 mM CsF, 20 mM CsCl, 5 mM EGTA, 5 mM HEPES and pH adjusted to 7.4 with CsOH. Compounds are diluted in extracellular solution to 10 μM in glass vials and then transferred to glass well plates before robotic addition to the cells. The 0 Na extracellular solution used at the end of each experiment for the Late INa and Peak INa assays to measure baseline current contains: 140 mM N-methyl-D-glucamine; 4 mM KCl; 1.8 mM CaCl2; 0.75 mM MgCl2; 5 mM HEPES and pH was adjusted to 7.4 with HCl.
# For the Late INa assay, sodium channels are activated every 10 seconds (0.1 Hz) by depolarizing the cell membrane to −20 mV for 250 milliseconds (ms) from a holding potential of −120 mV.
# All compounds are tested to determine their activity in blocking the late sodium current. Late INa current is generated by adding 10 μM Tefluthrin (pyrethroid) to the extracellular solution while recording Na currents. […] For some experiments, 50 nM ATX II (sea anemone toxin), another late INa activator, was used to generate the late component. […] Baseline current in the absence of Na^+ ions is measured at the end of each experiment (after two additions of 0 Na solution-see above) and is used to calculate the percent block by compound.
# Chain of wild-type human cardiac sodium channel, hNav1.5 (Q14524 whole entry): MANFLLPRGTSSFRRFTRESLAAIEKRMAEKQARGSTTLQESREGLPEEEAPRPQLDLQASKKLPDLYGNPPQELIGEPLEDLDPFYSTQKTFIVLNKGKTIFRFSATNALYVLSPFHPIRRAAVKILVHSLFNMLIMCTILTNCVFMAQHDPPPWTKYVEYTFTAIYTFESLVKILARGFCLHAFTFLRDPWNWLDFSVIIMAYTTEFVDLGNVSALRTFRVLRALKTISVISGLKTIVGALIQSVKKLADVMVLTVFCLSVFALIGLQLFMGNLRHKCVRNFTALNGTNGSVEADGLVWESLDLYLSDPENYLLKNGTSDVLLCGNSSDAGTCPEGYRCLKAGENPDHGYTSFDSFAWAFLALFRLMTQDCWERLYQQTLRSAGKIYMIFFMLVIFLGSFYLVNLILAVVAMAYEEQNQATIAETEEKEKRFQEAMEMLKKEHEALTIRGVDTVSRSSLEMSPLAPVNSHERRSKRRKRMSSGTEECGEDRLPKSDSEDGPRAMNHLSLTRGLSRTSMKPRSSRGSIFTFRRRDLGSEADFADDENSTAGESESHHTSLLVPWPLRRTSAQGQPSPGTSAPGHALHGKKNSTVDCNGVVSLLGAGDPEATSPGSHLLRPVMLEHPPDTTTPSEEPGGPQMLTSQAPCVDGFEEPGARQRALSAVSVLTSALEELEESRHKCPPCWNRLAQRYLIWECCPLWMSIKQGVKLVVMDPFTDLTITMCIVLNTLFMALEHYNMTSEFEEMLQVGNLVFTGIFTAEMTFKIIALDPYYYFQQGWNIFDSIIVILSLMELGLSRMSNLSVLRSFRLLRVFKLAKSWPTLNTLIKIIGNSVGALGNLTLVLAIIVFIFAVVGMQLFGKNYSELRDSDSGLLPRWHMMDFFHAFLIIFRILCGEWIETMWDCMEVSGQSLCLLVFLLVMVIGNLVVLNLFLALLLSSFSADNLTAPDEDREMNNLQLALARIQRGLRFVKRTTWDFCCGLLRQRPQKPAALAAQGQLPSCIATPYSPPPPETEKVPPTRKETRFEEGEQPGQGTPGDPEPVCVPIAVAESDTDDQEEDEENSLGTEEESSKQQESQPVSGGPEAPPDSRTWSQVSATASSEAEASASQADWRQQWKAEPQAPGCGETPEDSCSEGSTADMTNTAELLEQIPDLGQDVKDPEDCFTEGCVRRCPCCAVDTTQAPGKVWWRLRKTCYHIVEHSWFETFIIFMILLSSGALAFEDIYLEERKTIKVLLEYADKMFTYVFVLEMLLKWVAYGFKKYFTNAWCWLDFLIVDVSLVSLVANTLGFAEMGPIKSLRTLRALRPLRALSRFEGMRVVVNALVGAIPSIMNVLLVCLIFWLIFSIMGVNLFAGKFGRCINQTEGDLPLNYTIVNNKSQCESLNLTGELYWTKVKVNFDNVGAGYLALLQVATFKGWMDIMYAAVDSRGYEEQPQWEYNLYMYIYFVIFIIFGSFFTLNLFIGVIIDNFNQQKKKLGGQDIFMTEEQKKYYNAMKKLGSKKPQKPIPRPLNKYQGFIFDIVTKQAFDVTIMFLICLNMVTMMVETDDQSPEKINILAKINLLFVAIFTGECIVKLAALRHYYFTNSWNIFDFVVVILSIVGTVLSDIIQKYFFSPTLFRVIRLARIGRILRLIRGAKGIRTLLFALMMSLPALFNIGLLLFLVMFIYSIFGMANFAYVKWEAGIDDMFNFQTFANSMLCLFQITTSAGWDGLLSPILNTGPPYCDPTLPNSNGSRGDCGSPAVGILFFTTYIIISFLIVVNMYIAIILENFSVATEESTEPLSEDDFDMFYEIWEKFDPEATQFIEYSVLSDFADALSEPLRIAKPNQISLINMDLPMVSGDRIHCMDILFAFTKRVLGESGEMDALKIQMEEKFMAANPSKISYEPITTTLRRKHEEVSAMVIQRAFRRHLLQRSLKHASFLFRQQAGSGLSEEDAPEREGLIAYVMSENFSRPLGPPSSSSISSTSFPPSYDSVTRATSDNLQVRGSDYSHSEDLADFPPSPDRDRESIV
SMILES,inhibition at 10 µM,Late INa % blk
"CC1=C(C(=O)OC(C)(C)C)C(c2cccc3ccccc23)n2nnnc2N1 (stereo not drawn) [PT-023, tert-butyl 5-methyl-7-(naphthalen-1-yl)-4,7-dihydrotetrazolo[1,5-a]pyrimidine-6-carboxylate]",32.8%,
"CCOC(=O)C1=C(C)Nc2nnnn2C1c1ccccc1Oc1cccc(C(=O)OCC)c1 (stereo not drawn) [PT-479, ethyl 7-(2-(3-(ethoxycarbonyl)phenoxy)phenyl)-5-methyl-4,7-dihydrotetrazolo[1,5-a]pyrimidine-6-carboxylate]",35.7%,
"CC1=C(C(=O)OCc2ccccc2)C(c2ccccc2-c2cccc(N)c2)n2nnnc2N1 (stereo not drawn) [PT-399, benzyl 7-(3′-aminobiphenyl-2-yl)-5-methyl-4,7-dihydrotetrazolo[1,5-a]pyrimidine-6-carboxylate]",66.2%,
"CCOC(=O)C1=C(C)Nc2nnnn2C1c1ccccc1Oc1ccc(C#N)cc1 (stereo not drawn) [PT-485, ethyl 7-(2-(4-cyanophenoxy)phenyl)-5-methyl-4,7-dihydrotetrazolo[1,5-a]pyrimidine-6-carboxylate]",5.2%,
"CCOC(=O)C1=C(C)N(CC(=O)Nc2c(C)cccc2C)c2nnnn2C1c1ccccc1Br (stereo not drawn) [PT-490, ethyl 7-(2-bromophenyl)-4-(2-(2,6-dimethylphenylamino)-2-oxoethyl)-5-methyl-4,7-dihydrotetrazolo[1,5-a]pyrimidine-6-carboxylate]",7.3%,
"CCOC(=O)C1=C(C)NC2=C(C(=O)c3ccccc32)C1c1cccs1 (stereo not drawn) [PT-187, ethyl 2-methyl-5-oxo-4-(thiophen-2-yl)-4,5-dihydro-1H-indeno[1,2-b]pyridine-3-carboxylate]",-2.6%,
"CCOC(=O)C1=C(C)Nc2nnnn2C1c1cccc(C2C(C(=O)OCC)=C(C)Nc3nnnn32)c1 (stereo not drawn) [PT-202, diethyl 7,7′-(1,3-phenylene)bis(5-methyl-4,7-dihydrotetrazolo[1,5-a]pyrimidine-6-carboxylate)]",9.7%,
"CCOC(=O)C1=C(C)Nc2nnnn2C1c1cccc(Oc2ccc(C(=O)O)cc2)c1 (stereo not drawn) [PT-295, 4-(3-(6-(ethoxycarbonyl)-5-methyl-4,7-dihydrotetrazolo[1,5-a]pyrimidin-7-yl)phenoxy)benzoic acid]",7%,
"COC(=O)C1=C(C)Nc2nnnn2C1c1ccc(Br)s1 (stereo not drawn) [PT-522, methyl 7-(5-bromothiophen-2-yl)-5-methyl-4,7-dihydrotetrazolo[1,5-a]pyrimidine-6-carboxylate]",37.7%,
"CCOC(=O)C1=C(C)Nc2nnnn2C1c1ccccc1-c1cccs1 (stereo not drawn) [PT-462, ethyl 5-methyl-7-(2-(thiophen-2-yl)phenyl)-4,7-dihydrotetrazolo[1,5-a]pyrimidine-6-carboxylate]",63%,
"CC1=C(C(=O)OCc2ccccc2)C(c2ccc3ccccc3c2)n2nnnc2N1 (stereo not drawn) [PT-028, benzyl 5-methyl-7-(naphthalen-2-yl)-4,7-dihydrotetrazolo[1,5-a]pyrimidine-6-carboxylate]",23.1%,
"CC1=C(C(=O)N2CCCCC2)C(c2cccc3ccccc23)C2=C(CCCC2=O)N1 (stereo not drawn) [PT-265, 2-methyl-4-(naphthalen-1-yl)-3-(piperidine-1-carbonyl)-4,6,7,8-tetrahydroquinolin-5(1H)-one]",18.6%,
"CCOC(=O)C1=C(C)Nc2[nH]nc(C)c2C1c1cccs1 (stereo not drawn) [PT-443, ethyl 3,6-dimethyl-4-(thiophen-2-yl)-4,7-dihydro-1H-pyrazolo[3,4-b]pyridine-5-carboxylate]",20%,
"CC1=C(C(=O)OC(C)(C)Cc2ccccc2)C(c2ccccc2Br)c2cn[nH]c2N1 (stereo not drawn) [PT-263, 2-methyl-1-phenylpropan-2-yl 4-(2-bromophenyl)-6-methyl-4,7-dihydro-1H-pyrazolo[3,4-b]pyridine-5-carboxylate]",38.8%,
"CC1=C(C(=O)OCc2ccccc2)C(c2cnc(N3CCOCC3)s2)n2nnnc2N1 (stereo not drawn) [PT-346, benzyl 5-methyl-7-(2-morpholinothiazol-5-yl)-4,7-dihydrotetrazolo[1,5-a]pyrimidine-6-carboxylate]",23%,
"CC1=C(C(=O)OCc2cccc(-c3ccccc3)c2)C(c2cccc3ccccc23)n2nnnc2N1 (stereo not drawn) [PT-006, biphenyl-3-ylmethyl 5-methyl-7-(naphthalen-1-yl)-4,7-dihydrotetrazolo[1,5-a]pyrimidine-6-carboxylate]",5.4%,
"CCOC(=O)C1=C(C)Nc2nnnn2C1c1ccccc1Oc1ccc(C(=O)OCC)cc1 (stereo not drawn) [PT-483, ethyl 7-(2-(4-(ethoxycarbonyl)phenoxy)phenyl)-5-methyl-4,7-dihydrotetrazolo[1,5-a]pyrimidine-6-carboxylate]",31.8%,
"CC1=C(C(=O)N2CCC(c3ccccc3)CC2)C(c2cccc3ccccc23)n2nnnc2N1 (stereo not drawn) [PT-066, (5-methyl-7-(naphthalen-1-yl)-4,7-dihydrotetrazolo[1,5-a]pyrimidin-6-yl)(4-phenylpiperidin-1-yl)methanone]",22.2%,
"CC1=C(C(=O)OCc2ccccc2)C(c2ccc(-c3nnn[nH]3)cc2)n2nnnc2N1 (stereo not drawn) [PT-403, benzyl 7-(4-(1H-tetrazol-5-yl)phenyl)-5-methyl-4,7-dihydrotetrazolo[1,5-a]pyrimidine-6-carboxylate]",9.7%,
"CC1=C(C(=O)OCc2ccccc2)C(c2ccc(OCCN(C)C)cc2)n2nnnc2N1 (stereo not drawn) [PT-405, benzyl 7-(4-(2-(dimethylamino)ethoxy)phenyl)-5-methyl-4,7-dihydrotetrazolo[1,5-a]pyrimidine-6-carboxylate]",18.4%,
"COC(=O)C1=C(C)Nc2nnnn2C1c1ccc(-c2ccc(OC)cc2)s1 (stereo not drawn) [PT-521, methyl 7-(5-(4-methoxyphenyl)thiophen-2-yl)-5-methyl-4,7-dihydrotetrazolo[1,5-a]pyrimidine-6-carboxylate]",37.5%,
"CCOC(=O)C1=C(C)NC2=C(C(=O)CCC2)C1c1ccccc1-c1ccc(C(=O)O)cc1 (stereo not drawn) [PT-250, 2′-(3-(ethoxycarbonyl)-2-methyl-5-oxo-1,4,5,6,7,8-hexahydroquinolin-4-yl)biphenyl-4-carboxylic acid]",7.6%,
"CC1=C(C(=O)N2CCN(c3ccc(C(=O)O)cc3)CC2)C(c2cccc3ccccc23)C2=C(CCCC2=O)N1 (stereo not drawn) [PT-297, 4-(4-(2-methyl-4-(naphthalen-1-yl)-5-oxo-1,4,5,6,7,8-hexahydroquinoline-3-carbonyl)piperazin-1-yl)benzoic acid]",4.9%,
"CC1=C(C(=O)OC(C)C)C(c2c[nH]nc2-c2ccc(F)cc2)C(C(=O)OC(C)C)=C(C)N1 [PT-128, diisopropyl 4-(3-(4-fluorophenyl)-1H-pyrazol-4-yl)-2,6-dimethyl-1,4-dihydropyridine-3,5-dicarboxylate]",,34.1%
"COC(=O)C1=C(C)Nc2nnnn2C1c1sc2ccccc2c1-c1cccc(C(=O)O)c1 (stereo not drawn) [PT-273, 3-(2-(6-(methoxycarbonyl)-5-methyl-4,7-dihydrotetrazolo[1,5-a]pyrimidin-7-yl)benzo[b]thiophen-3-yl)benzoic acid]",14.1%,
"CCOC(=O)C1=C(C)NC2=C(C(=O)CCC2)C1c1ccc(N(C)C)c2ccccc12 (stereo not drawn) [PT-139, ethyl 4-(4-(dimethylamino)naphthalen-1-yl)-2-methyl-5-oxo-1,4,5,6,7,8-hexahydroquinoline-3-carboxylate]",21.8%,
"CC1=C(C(=O)OCc2ccccc2)C(c2cccs2)c2cn[nH]c2N1 (stereo not drawn) [PT-370, benzyl 6-methyl-4-(thiophen-2-yl)-4,7-dihydro-1H-pyrazolo[3,4-b]pyridine-5-carboxylate]",24.7%,
